Experiments:
lambsquarters = experiment: Test C pre-/postemergence herbicide test; format: in vivo, Chenopodium album
Procedure, shortened: (§1)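 Greenhouse-grown plants were evaluated visually 12 to 14 days after treatment, with 100 meaning complete control and 0 no effect. Application was preemergence, or postemergence at 2 to 18 cm.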

kochia = experiment: Test C pre-/postemergence herbicide test; format: in vivo, Kochia scoparia
Procedure, shortened: as §1

giant foxtail = experiment: Test C pre-/postemergence herbicide test; format: in vivo, Setaria faberi
Procedure, shortened: as §1

common ragweed = experiment: Test C pre-/postemergence herbicide test; format: in vivo, Ambrosia elatior; design: key to Plant response rating, Ragweed: 0 = no effect, 100 = complete control
Procedure, shortened: as §1

[1] = tested on: common (oilseed) sunflower; experiment: Test C pre-/postemergence herbicide test; format: in vivo, Helianthus annuus; details: for Plant response rating, Sunflower / Plant response rating (0 = no effect, 100 = complete control), Sunflower: preemergence
Text: Seeds of plant species selected from bermudagrass (Cynodon dactylon (L.) Pers.), Surinam grass (Urochloa decumbens (Staph) R. D. Webster, previously named Brachiaria decumbens Stapf), cocklebur (Xanthium strumarium L.), corn (Zea mays L.), large crabgrass (Digitaria sanguinalis (L.) Scop.), woolly cupgrass (Eriochloa villosa (Thunb.) Kunth), giant foxtail (Setaria faberi Herrm.), goosegrass (Eleusine indica (L.) Gaertn.), johnsongrass (Sorghum halepense (L.) Pers.), kochia (Kochia scoparia (L.) Schrad.), lambsquarters (Chenopodium album L.), morningglory (Ipomoea coccinea L.), eastern black nightshade (Solanum ptycanthum Dunal), yellow nutsedge (Cyperus esculentus L.), pigweed (Amaranthus retroflexus L.), common ragweed (Ambrosia elatior L.), soybean (Glycine max (L.) Merr.), common (oilseed) sunflower (Helianthus annuus L.) and velvetleaf (Abutilon theophrasti Medik.) were planted and treated preemergence with test chemicals formulated in a non-phytotoxic solvent mixture which included a surfactant.
At the same time, plants selected from these crop and weed species and also winter barley (Hordeum vulgare L.), blackgrass (Alopecurus myosuroides Huds.), canarygrass (Phalaris minor Retz.), chickweed (Stellaria media (L.) Vill.), downy bromegrass (Bromus tectorum L.), green foxtail (Setaria viridis (L.) Beauv.), Italian ryegrass (Lolium multiflorum Lam.), wheat (Triticum aestivum L.), wild oat (Avenafatua L.) and windgrass (Apera spica-venti (L.) Beauv.) were treated with postemergence applications of some of the test chemicals formulated in the same manner. Plants ranged in height from 2 to 18 cm (1- to 4-leaf stage) for postemergence treatments. Plant species in the flooded paddy test consisted of rice (Oryza sativa), smallflower umbrella sedge (Cyperus difformis L.), ducksalad (Heteranthera limosa (Sw.) Willd.) and barnyardgrass (Echinochloa crus-galli (L.) Beauv.) grown to the 2-leaf stage for testing. Treated plants and controls were maintained in a greenhouse for 12 to 14 days, after which time all species were compared to controls and visually evaluated. Plant response ratings, summarized in Table C, are based on a scale of 0 to 100 where 0 is no effect and 100 is complete control. A dash (-) response means no test result.

corn = experiment: Test C pre-/postemergence herbicide test; format: in vivo, Zea mays
Procedure, shortened: as §1

velvetleaf = experiment: Test C pre-/postemergence herbicide test; format: in vivo, Abutilon theophrasti
Procedure, shortened: as §1

barnyardgrass = experiment: Test A pre-/postemergence herbicide test; format: in vivo, Echinochloa crus-galli
Procedure, shortened: (§2)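 Plants are held in greenhouse about ten days after treatment, then compared with untreated controls and scored 0 (no effect) to 100 (complete control). Preemergence dosing is a directed soil spray on sown sandy loam; postemergence dosing is spray to runoff at 2–10 cm height.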

large crabgrass = experiment: Test A pre-/postemergence herbicide test; format: in vivo, Digitaria sanguinalis
Procedure, shortened: as §2

redroot pigweed = experiment: Test A pre-/postemergence herbicide test; format: in vivo, Amaranthus retroflexus
Procedure, shortened: as §2

[2] = 62 g ai/ha, preemergence, scale 0 to 100
[3] = 125 g ai/ha, scale 0 (no effect) to 100 (complete control), visual, 12 to 14 days, preemergence
[4] = 250 g ai/ha, scale 0-100, preemergence
[5] = 500 g ai/ha, scale 0 to 100 (0 no effect, 100 complete control), visual, 12 to 14 days, preemergence
[6] = 500 g ai/ha, scale 0 to 100 (0 no effect, 100 complete control), visual, 12 to 14 days
[7] = 250 g ai/ha, scale 0 to 100 (0 no effect, 100 complete control), visual, 12 to 14 days, preemergence
[8] = Preemergence, 500 g ai/ha, scale 0 to 100, 0 no effect, 100 complete control
[9] = 125 g ai/ha, scale 0 (no effect) to 100 (complete control), visual, 12 to 14 days
[10] = 31 g ai/ha, preemergence, scale 0 to 100
[11] = Postemergence, 500 g ai/ha, 0 to 100 scale, 0 no effect, 100 complete control
[12] = Postemergence, 2000 g ai/ha, 0 to 100 scale, 0 no effect, 100 complete control
[13] = Preemergence, 500 g ai/ha, visual rating, 0 to 100 scale (0 no effect, 100 complete control)
[14] = Preemergence, 2000 g ai/ha, 0 to 100 scale, 0 no effect, 100 complete control
[15] = Postemergence, 250 g ai/ha, scale 0 to 100, 0 no effect, 100 complete control
[16] = Postemergence, 500 g ai/ha, scale 0 to 100, 0 no effect, 100 complete control
[17] = postemergence, 125 g ai/ha, scale 0 to 100
[18] = postemergence, 62 g ai/ha, scale 0 to 100
[19] = Preemergence, 2000 g ai/ha, visual rating, 0 to 100 scale (0 no effect, 100 complete control)
[20] = preemergence, 500 g ai/ha, visual injury, 0 to 100 scale (0 no effect, 100 complete control)

SMILES: CCN1N=C(C(C)(C)C)CC1C(=O)Nc1cc(C(=O)N2CC=CC2)ccc1F (racemic) [Compound 310]
- Plant response rating, Lambsquarters (lambsquarters; [2]): 95
- Plant response rating, Lambsquarters (lambsquarters; [3]): 100
- Plant response rating, Lambsquarters (lambsquarters; [4]): 100
- Plant response rating, Lambsquarters (lambsquarters; [5]): 100
- Plant response rating, Kochia (kochia; [2]): 95
- Plant response rating, Kochia (kochia; [3]): 100
- Plant response rating, Kochia (kochia; [4]): 100
- Plant response rating, Kochia (kochia; [5]): 100
- Plant response rating, Foxtail, Giant (giant foxtail; [2]): 5
- Plant response rating, Foxtail, Giant (giant foxtail; [3]): 40
- Plant response rating, Foxtail, Giant (giant foxtail; [4]): 85
- Plant response rating, Foxtail, Giant (giant foxtail; [5]): 100
- Plant response rating, Ragweed (common ragweed; [2]): 0
- Plant response rating, Ragweed (common ragweed; [4]): 50
- Plant response rating, Ragweed (common ragweed; [5]): 80
- Plant response rating, Sunflower ([1]; 62 g ai/ha, scale 0 to 100): 0
- Plant response rating, Sunflower ([1]; 250 g ai/ha, scale 0-100): 0
- Plant response rating, Sunflower [1, 6]: 0
- Plant response rating, Corn (corn; [3]): 0
- Plant response rating, Corn (corn; [4]): 5
- Plant response rating, Corn (corn; [5]): 10
- Plant response rating, Velvetleaf (velvetleaf; [2]): 0
- Plant response rating, Velvetleaf (velvetleaf; [4]): 10
- Plant response rating, Velvetleaf (velvetleaf; [5]): 100

SMILES: C=CCn1nc(C(C)(C)C)cc1C(=O)Nc1cccc(C(=O)NCC)c1 [Compound 56]
- Plant response rating (0 = no effect, 100 = complete control), Lambsquarters (lambsquarters; 62 g ai/ha, preemergence): 85
- Plant response rating, Lambsquarters (lambsquarters; [3]): 100
- Plant response rating, Lambsquarters (lambsquarters; [7]): 100
- Lambsquarters plant response rating (lambsquarters; [8]): 100
- Plant response rating (0 = no effect, 100 = complete control), Kochia (kochia; 62 g ai/ha, preemergence): 75
- Plant response rating, Kochia (kochia; [3]): 90
- Plant response rating, Kochia (kochia; [7]): 95
- Kochia plant response rating (kochia; [8]): 95
- Plant response rating (0 = no effect, 100 = complete control), Foxtail, Giant (giant foxtail; 62 g ai/ha, preemergence): 45
- Plant response rating, Foxtail, Giant (giant foxtail; [3]): 85
- Plant response rating, Foxtail, Giant (giant foxtail; [7]): 100
- Foxtail, Giant plant response rating (giant foxtail; [8]): 100
- Plant response rating (0 = no effect, 100 = complete control), Ragweed (common ragweed; 62 g ai/ha, preemergence): 60
- Plant response rating, Ragweed (common ragweed; [3]): 95
- Plant response rating, Ragweed (common ragweed; [7]): 95
- Ragweed plant response rating (common ragweed; [8]): 95
- Plant response rating (0 = no effect, 100 = complete control), Sunflower ([1]; 62 g ai/ha): 0
- Plant response rating, Sunflower [1, 9]: 0
- Plant response rating, Sunflower ([1]; 250 g ai/ha, scale 0 to 100 (0 no effect, 100 complete control), visual, 12 to 14 days): 0
- Sunflower plant response rating [1, 8]: 0
- Plant response rating (0 = no effect, 100 = complete control), Corn (corn; 62 g ai/ha, preemergence): 0
- Plant response rating, Corn (corn; [3]): 0
- Plant response rating, Corn (corn; [7]): 0
- Corn plant response rating (corn; [8]): 0
- Plant response rating (0 = no effect, 100 = complete control), Velvetleaf (velvetleaf; 62 g ai/ha, preemergence): 20
- Plant response rating, Velvetleaf (velvetleaf; [3]): 35
- Plant response rating, Velvetleaf (velvetleaf; [7]): 50
- Velvetleaf plant response rating (velvetleaf; [8]): 100

SMILES: CCOC(=O)c1cc(NC(=O)c2cc(C(C)(C)C)nn2CC)ccc1OCC [Compound 95]
- Plant response rating, Kochia (kochia; [10]): 80
- Plant response rating (0 = no effect, 100 = complete control), Kochia (kochia; 62 g ai/ha, preemergence): 100
- Plant response rating, Kochia (kochia; [3]): 100
- Plant response rating, Foxtail, Giant (giant foxtail; [10]): 0
- Plant response rating (0 = no effect, 100 = complete control), Foxtail, Giant (giant foxtail; 62 g ai/ha, preemergence): 60
- Plant response rating, Foxtail, Giant (giant foxtail; [3]): 100
- Plant response rating, Foxtail, Giant (giant foxtail; [7]): 100
- Plant response rating, Ragweed (common ragweed; [10]): 10
- Plant response rating (0 = no effect, 100 = complete control), Ragweed (common ragweed; 62 g ai/ha, preemergence): 50
- Plant response rating, Ragweed (common ragweed; [3]): 80
- Barnyardgrass plant response rating (barnyardgrass; [11]): 30
- Plant response rating, Barnyardgrass (barnyardgrass; [12]): 55
- Barnyardgrass plant response rating (barnyardgrass; [13]): 30
- Barnyardgrass plant response rating (barnyardgrass; [14]): 50
- Plant response rating, Sunflower ([1]; 31 g ai/ha, scale 0 to 100): 0
- Plant response rating (0 = no effect, 100 = complete control), Sunflower ([1]; 62 g ai/ha): 0
- Plant response rating, Sunflower [1, 9]: 0
- Plant response rating, Corn (corn; [10]): 0
- Plant response rating (0 = no effect, 100 = complete control), Corn (corn; 62 g ai/ha, preemergence): 0
- Plant response rating, Corn (corn; [3]): 10
- Plant response rating, Corn (corn; [7]): 20
- Crabgrass, Large plant response rating (large crabgrass; [11]): 25
- Plant response rating, Crabgrass, Large (large crabgrass; [12]): 60
- Crabgrass, Large plant response rating (large crabgrass; [13]): 50
- Crabgrass, Large plant response rating (large crabgrass; [14]): 90
- Pigweed plant response rating (redroot pigweed; [11]): 85
- Plant response rating, Pigweed (redroot pigweed; [12]): 100
- Pigweed plant response rating (redroot pigweed; [13]): 100
- Pigweed plant response rating (redroot pigweed; [14]): 100
- Plant response rating, Velvetleaf (velvetleaf; [10]): 0
- Plant response rating, Velvetleaf (velvetleaf; [3]): 60

SMILES: CCn1nc(C(C)(C)C)cc1C(=O)Nc1cc(C(=O)N(C)OC)ccc1F [Compound 244]
- Plant response rating, Foxtail, Giant (giant foxtail; [2]): 80
- Plant response rating, Foxtail, Giant (giant foxtail; [3]): 95
- Plant response rating, Foxtail, Giant (giant foxtail; [4]): 95
- Plant response rating, Foxtail, Giant (giant foxtail; [5]): 100
- Plant response rating, Ragweed (common ragweed; [2]): 95
- Plant response rating, Ragweed (common ragweed; [4]): 100
- Plant response rating, Ragweed (common ragweed; [5]): 100
- Plant response rating, Sunflower ([1]; 62 g ai/ha, scale 0 to 100): 0
- Plant response rating, Sunflower ([1]; 250 g ai/ha, scale 0-100): 15
- Plant response rating, Sunflower [1, 6]: 20
- Plant response rating, Corn (corn; [2]): 0
- Plant response rating, Corn (corn; [3]): 10
- Plant response rating, Corn (corn; [4]): 10
- Plant response rating, Corn (corn; [5]): 45
- Plant response rating, Velvetleaf (velvetleaf; [2]): 15
- Plant response rating, Velvetleaf (velvetleaf; [4]): 100
- Plant response rating, Velvetleaf (velvetleaf; [5]): 100

SMILES: CCn1nc(C(C)(C)C)cc1C(=O)Nc1cc(OC(F)(F)F)ccc1F [Compound 338]
- Plant response rating, Lambsquarters (lambsquarters; [15]): 75
- Plant response rating, Lambsquarters (lambsquarters; [16]): 75
- Plant response rating, Lambsquarters (lambsquarters; [17]): 5
- Plant response rating, Lambsquarters (lambsquarters; [18]): 0
- Plant response rating, Kochia (kochia; [15]): 90
- Plant response rating, Kochia (kochia; [16]): 90
- Plant response rating, Kochia (kochia; [17]): 60
- Plant response rating, Kochia (kochia; [18]): 50
- Plant response rating, Foxtail, Giant (giant foxtail; [15]): 10
- Plant response rating, Foxtail, Giant (giant foxtail; [16]): 10
- Plant response rating, Foxtail, Giant (giant foxtail; [17]): 5
- Plant response rating, Foxtail, Giant (giant foxtail; [18]): 5
- Plant response rating, Ragweed (common ragweed; [15]): 5
- Plant response rating, Ragweed (common ragweed; [16]): 10
- Plant response rating, Ragweed (common ragweed; [17]): 5
- Plant response rating, Ragweed (common ragweed; [18]): 0
- Barnyardgrass plant response rating (barnyardgrass; [11]): 20
- Plant response rating, Barnyardgrass (barnyardgrass; [12]): 35
- Barnyardgrass plant response rating (barnyardgrass; [19]): 95
- Barnyardgrass plant response rating (barnyardgrass; [20]): 60
- Plant response rating, Corn (corn; [15]): 10
- Plant response rating, Corn (corn; [16]): 10
- Plant response rating, Corn (corn; [17]): 0
- Plant response rating, Corn (corn; [18]): 0
- Crabgrass, Large plant response rating (large crabgrass; [11]): 20
- Plant response rating, Crabgrass, Large (large crabgrass; [12]): 45
- Crabgrass, Large plant response rating (large crabgrass; [19]): 100
- Crabgrass, Large plant response rating (large crabgrass; [20]): 65
- Pigweed plant response rating (redroot pigweed; [11]): 70
- Plant response rating, Pigweed (redroot pigweed; [12]): 95
- Pigweed plant response rating (redroot pigweed; [19]): 90
- Pigweed plant response rating (redroot pigweed; [20]): 55
- Plant response rating, Velvetleaf (velvetleaf; [15]): 40
- Plant response rating, Velvetleaf (velvetleaf; [16]): 80
- Plant response rating, Velvetleaf (velvetleaf; [17]): 0
- Plant response rating, Velvetleaf (velvetleaf; [18]): 0
